# Data from ChEMBL document CHEMBL3046330, “Synthesis and biological activity of hydrazidehydrazones and their corresponding 3-acetyl-2,5-disubstituted-2,3-dihydro-1,3,4-oxadiazoles” (Med Chem Res, 2012).
# Activity calls are given as the source filed them. The rule behind the calls is not given here.
# Tests used:
# [1] = Inhibition of PMA-induced NFkappaB activity in Homo sapiens (human) SW1353 cells incubated for 30 min followed by PMA induction for 8 hr by luciferase reporter gene assay; assay type: cell-based
# RAW264.7 [2] = assay: Cytotoxicity against Mus musculus (mouse) RAW264.7 cells; assay type: cell-based
# [3] = target: T1, Nitric oxide synthase, inducible (Mus musculus, UniProt P29477); assay: Inhibition of iNOS in Mus musculus (mouse) RAW264.7 cells assessed as inhibition of LPS-induced nitrite production incubated for 30 min prior to LPS challenge measured after 24 hr by Griess assay; assay type: cell-based
# T1 sequence (P29477 whole entry): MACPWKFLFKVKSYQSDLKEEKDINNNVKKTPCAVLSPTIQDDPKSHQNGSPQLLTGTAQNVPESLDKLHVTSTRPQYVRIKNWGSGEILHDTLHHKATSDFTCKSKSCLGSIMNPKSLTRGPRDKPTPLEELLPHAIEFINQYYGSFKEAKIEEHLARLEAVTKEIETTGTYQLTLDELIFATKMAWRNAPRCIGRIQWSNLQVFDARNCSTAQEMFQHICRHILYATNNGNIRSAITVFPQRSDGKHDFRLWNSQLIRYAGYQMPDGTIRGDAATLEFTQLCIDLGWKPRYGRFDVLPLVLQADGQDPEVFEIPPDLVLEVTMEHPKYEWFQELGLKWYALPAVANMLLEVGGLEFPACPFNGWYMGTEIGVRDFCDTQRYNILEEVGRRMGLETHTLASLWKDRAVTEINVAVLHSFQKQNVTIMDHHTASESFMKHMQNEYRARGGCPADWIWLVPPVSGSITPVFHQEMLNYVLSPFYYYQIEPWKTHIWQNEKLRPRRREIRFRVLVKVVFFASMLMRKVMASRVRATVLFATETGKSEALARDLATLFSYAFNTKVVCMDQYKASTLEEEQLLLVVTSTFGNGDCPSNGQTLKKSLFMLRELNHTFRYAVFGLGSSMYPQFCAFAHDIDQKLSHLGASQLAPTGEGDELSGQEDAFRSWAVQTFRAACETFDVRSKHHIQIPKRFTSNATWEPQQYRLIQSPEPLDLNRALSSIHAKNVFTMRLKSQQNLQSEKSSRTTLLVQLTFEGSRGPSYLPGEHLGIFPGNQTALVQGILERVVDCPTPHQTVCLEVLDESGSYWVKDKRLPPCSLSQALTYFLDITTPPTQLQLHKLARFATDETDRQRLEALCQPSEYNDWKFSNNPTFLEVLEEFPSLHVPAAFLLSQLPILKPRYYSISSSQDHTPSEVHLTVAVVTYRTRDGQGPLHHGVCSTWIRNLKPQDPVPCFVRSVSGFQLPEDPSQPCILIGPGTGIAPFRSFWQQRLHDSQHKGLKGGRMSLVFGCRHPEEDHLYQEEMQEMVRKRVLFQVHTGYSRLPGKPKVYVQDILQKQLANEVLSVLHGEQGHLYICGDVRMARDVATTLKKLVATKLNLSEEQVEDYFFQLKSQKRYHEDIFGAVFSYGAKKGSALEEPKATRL
# SW1353 = assay: Inhibition of PMA-induced NFkappaB activity in Homo sapiens (human) SW1353 cells up to 25 ug/ml incubated for 30 min followed by PMA induction for 8 hr by luciferase reporter gene assay; assay type: cell-based
# KB = assay: Cytotoxicity against Homo sapiens (human) KB cells assessed as cell viability up to 25 ug/ml after 48 hr by neutral red assay; assay type: functional, cell-based
# SK-OV-3 = assay: Cytotoxicity against Homo sapiens (human) SKOV3 cells assessed as cell viability up to 25 ug/ml after 48 hr by neutral red assay; assay type: functional, cell-based
# Candida albicans [4] = assay: Antifungal activity against Candida albicans ATCC 90028 after 24 hr by NCCLS broth microdilution method; assay type: functional; conditions: ATCC 90028, 24 h
# Candida tropicalis [5] = assay: Antifungal activity against Candida tropicalis NRRL Y-12968 at 2000 ug/ml by agar diffusion method; assay type: functional; conditions: read-out: IZ
# Candida albicans [6] = assay: Antifungal activity against Candida albicans NRRL Y-12983 after 24 hr by NCCLS broth microdilution method; assay type: functional; conditions: NRRL Y-12983, 24 h
# [7] = target: T2, Nitric oxide synthase, inducible (Mus musculus) (UniProt P29477); assay: Inhibition of iNOS in Mus musculus (mouse) RAW264.7 cells assessed as inhibition of LPS-induced nitrite production up to 25 ug/ml incubated for 30 min prior to LPS challenge measured after 24 hr by Griess assay relative to vehicle-treated control; assay type: cell-based
# T2 sequence (whole entry): T1 sequence (P29477 whole entry)
# Pichia kudriavzevii = assay: Antifungal activity against Pichia kudriavzevii NRRL Y-7179 after 24 hr by NCCLS broth microdilution method; assay type: functional; conditions: NRRL Y-7179, 24 h
# Candida albicans [8] = assay: Antifungal activity against Candida albicans clinical isolate at 2000 ug/ml by agar diffusion method; assay type: functional; conditions: read-out: IZ
# Candida parapsilosis = assay: Antifungal activity against Candida parapsilosis NRRL Y-12696 after 24 hr by NCCLS broth microdilution method; assay type: functional; conditions: Lodderomyces parapsilosis, NRRL Y-12696, 24 h
# SK-MEL = assay: Cytotoxicity against Homo sapiens (human) SK-MEL cells assessed as cell viability up to 25 ug/ml after 48 hr by neutral red assay; assay type: functional, cell-based
# HL-60 [9] = assay: Cytotoxicity against Homo sapiens (human) HL60 cells up to 25 ug/ml; assay type: cell-based
# Transcription factor Sp1 = Transcription factor Sp1 (Homo sapiens, UniProt P08047); assay: Inhibition of Sp1 (unknown origin) up to 25 ug/ml by luciferase reporter gene assay
# Chain of Transcription factor Sp1 (P08047 whole entry): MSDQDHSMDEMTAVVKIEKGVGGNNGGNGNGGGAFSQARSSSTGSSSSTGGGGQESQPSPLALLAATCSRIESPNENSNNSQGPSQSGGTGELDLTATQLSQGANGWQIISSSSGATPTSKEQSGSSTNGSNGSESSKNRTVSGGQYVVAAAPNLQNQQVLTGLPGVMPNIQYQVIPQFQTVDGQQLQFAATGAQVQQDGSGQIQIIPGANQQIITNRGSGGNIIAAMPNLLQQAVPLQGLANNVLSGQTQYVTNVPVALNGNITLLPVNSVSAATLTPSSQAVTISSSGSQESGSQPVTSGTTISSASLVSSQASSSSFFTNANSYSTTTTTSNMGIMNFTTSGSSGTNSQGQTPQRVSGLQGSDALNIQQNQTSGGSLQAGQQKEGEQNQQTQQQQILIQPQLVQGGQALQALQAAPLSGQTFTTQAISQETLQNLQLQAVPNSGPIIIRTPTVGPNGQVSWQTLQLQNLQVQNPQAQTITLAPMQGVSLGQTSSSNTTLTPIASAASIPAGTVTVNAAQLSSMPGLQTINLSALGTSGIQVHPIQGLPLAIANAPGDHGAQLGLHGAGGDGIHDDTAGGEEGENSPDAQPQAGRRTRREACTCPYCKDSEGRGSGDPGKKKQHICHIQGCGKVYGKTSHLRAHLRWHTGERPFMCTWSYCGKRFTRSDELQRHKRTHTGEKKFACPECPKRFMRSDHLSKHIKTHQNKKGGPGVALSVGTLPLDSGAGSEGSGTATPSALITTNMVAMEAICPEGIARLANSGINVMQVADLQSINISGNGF
# BT-549 = assay: Cytotoxicity against Homo sapiens (human) BT549 cells assessed as cell viability up to 25 ug/ml after 48 hr by neutral red assay; assay type: functional, cell-based
# Candida tropicalis [10] = assay: Antifungal activity against Candida tropicalis NRRL Y-12968 after 24 hr by NCCLS broth microdilution method; assay type: functional; conditions: NRRL Y-12968, 24 h
# Cyberlindnera jadinii = assay: Antifungal activity against Cyberlindnera jadinii NRRL Y-900 after 24 hr by NCCLS broth microdilution method; assay type: functional; conditions: Williopsis jadinii, NRRL Y-900, 24 h
# [11] = Cytotoxicity against Sus scrofa (pig) LLC-PK11 cells assessed as cell viability up to 25 ug/ml after 48 hr by neutral red assay; assay type: cell-based; conditions: llc-pk11, 48 h
# HL-60 [12] = assay: Antioxidant activity in PMA-stimulated Homo sapiens (human) HL60 cells assessed as inhibition of intracellular ROS generation up to 25 ug/ml incubated for 30 min prior to PMA stimulation measured after 30 min by DCFH-DA assay relative to vehicle-treated control; assay type: functional, cell-based
# Vero = assay: Cytotoxicity against Chlorocebus aethiops (African green monkey) Vero cells assessed as cell viability up to 25 ug/ml after 48 hr by neutral red assay; assay type: cell-based; conditions: chlorocebus sabaeus
# Fusarium oxysporum = assay: Antifungal activity against Fusarium oxysporum assessed as growth inhibition at 30 uM after 72 hr by broth microdilution method; assay type: functional; conditions: read-out: GI
# Botrytis cinerea = assay: Antifungal activity against Botryotinia fuckeliana at 0.3 to 30 uM after 48 to 72 hr by broth microdilution method; assay type: functional, organism-based
# Candida albicans [13] = assay: Antifungal activity against Candida albicans clinical isolate after 24 hr by NCCLS broth microdilution method; assay type: functional
# Nakaseomyces glabratus = assay: Antifungal activity against Candida glabrata clinical isolate after 24 hr by NCCLS broth microdilution method; assay type: functional
# Diaporthe ampelina = assay: Antifungal activity against Diaporthe ampelina assessed as growth inhibition at 30 uM after 144 hr by broth microdilution method; assay type: functional; conditions: read-out: GI
# [14] = system: Colletotrichum gloeosporioides; assay: Antifungal activity against Colletotrichum gloeosporioides assessed as growth inhibition at 30 uM after 72 hr by broth microdilution method; assay type: functional; conditions: read-out: GI
# Colletotrichum fragariae = assay: Antifungal activity against Colletotrichum fragariae at 0.3 to 30 uM after 48 to 72 hr by broth microdilution method; assay type: functional, organism-based
# RAW264.7 [15] = assay: Cytotoxicity against Mus musculus (mouse) RAW264.7 cells up to 25 ug/ml; assay type: cell-based
# HL-60 [16] = assay: Cytotoxicity against Homo sapiens (human) HL60 cells; assay type: cell-based
IC50 [3],MIC (Candida albicans [4]),MIC (Candida albicans [6]),MIC (Pichia kudriavzevii),MIC (Candida parapsilosis),inhibition (INH) (Transcription factor Sp1),MIC (Candida tropicalis [10]),MIC (Cyberlindnera jadinii),SMILES,IC50 (RAW264.7 [2]),inhibition (SW1353),Activity (KB),Activity (SK-OV-3),zone of inhibition at 2000 µg/mL (Candida tropicalis [5]),zone of inhibition at 2000 µg/mL (Candida albicans [8]),Activity (SK-MEL),Activity (BT-549),Activity [11],inhibition (HL-60 [12]),Activity (Vero),further results
1.61 µM,,,,,,,,C=C1C(=O)O[C@@H]2C3O[C@]3(C)CC/C=C(\C)CC[C@@H]12 (stereo partly specified),13 µg/mL,,,,,,,,,,,IC50 [1]: 0.68 µg/mL
> 96.8 µM,500 µg/mL,500 µg/mL,500 µg/mL,500 µg/mL,Not Active,500 µg/mL,500 µg/mL,O=C(N/N=C/c1ccc(O)cc1)c1ccc(F)cc1,> 25 µg/mL,inactive,inactive,inactive,9 mm,9 mm,inactive,inactive,Not Active,inactive,Not Active,inhibition [7]: inactive; Activity (HL-60 [9]): Non-toxic
> 76.4 µM,250 µg/mL,125 µg/mL,250 µg/mL,250 µg/mL,Not Active,250 µg/mL,250 µg/mL,O=C(N/N=C/c1ccc(Br)s1)c1ccc(F)cc1,,inactive,inactive,inactive,9 mm,9 mm,inactive,inactive,Not Active,inactive,Not Active,inhibition of growth at 30 µM (Fusarium oxysporum): 40%; Activity (Botrytis cinerea): inactive; MIC (Candida albicans [13]): 250 µg/mL; MIC (Nakaseomyces glabratus): 250 µg/mL; inhibition of growth at 30 µM (Diaporthe ampelina): 91%; inhibition of growth at 30 µM [14]: 32%; Activity (Colletotrichum fragariae): inactive; Activity (RAW264.7 [15]): Non-toxic; IC50 (HL-60 [16]): 16 µg/mL
